From patent publication US11208559B2, “Modified indigo compounds and methods of dyeing a substrate using a modified indigo compound” (VF Jeanswear LP, priority 2016, dated 2021)
Blank lines part the entries; values can stand above or below the compound they belong to.

What was measured:
Type in all cases: physicochemical
[1] = Hydrolysis to indigo under hydrolyzing conditions
[2] = Solubility studies in water (centrifugation, weighing of undissolved solids); details: for Highest Solubility Measured (wt. %): in water, corrected for insoluble solids, true maximum solubility not determined; for average percent solids removed: undissolved solids removed during centrifugation of aqueous solutions
Experimental: The solutions were prepared by adding a known amount of dye to a known amount of water and agitating the solution. Separately, each solution of known concentration was centrifuged for 30 minutes to separate out any undissolved solids. The supernatant was decanted and the remaining undissolved solids were dried at 50° C. and later weighed to determine wt. % of soluble portion.
The actual concentration was determined by centrifuging the dye solutions extensively to remove any undissolved solids. The undissolved solids were then isolated, dried, and weighed.
Note that in all instances, a true maximum solubility in water has not been determined due to the very high solubility of the compounds in water. For all compounds, the maximum solubility was corrected for the amount of insoluble solids that were isolated during centrifugation.

[3] = Heat treatment of dyed cotton fabric, conversion to indigo; details: 4 minutes
Experimental: Prepared for dye (PFD) 3×1 twill cotton fabric dyed with Compound 8 prepared by dipping in an aqueous solution containing 3 wt. % of Compound 8, padding, and drying at 50° C. The samples were then placed separately into a lab-scale tenter frame for heat treatment. See, FIG. 20 showing the dyed fabric exposed to 100° C. (left), 150° C. (middle), and 180° C. (right).

[4] = Relative kinetics of degradation (hydrolysis) monitored by UV-Vis spectrophotometry; details: 0.01 wt. % with 0.1M NaCl aqueous versus 0.01 wt. % without salt, room temperature
Experimental: In this example, the relative kinetics of degradation for two conditions for Compound 8 were measured. One solution contained 0.01 wt. % of Compound 8 and 0.1M NaCl aqueous and the other solution contained 0.01 wt. % of Compound 8. Both solutions were stored at room temperature and the hydrolysis monitored using UV-Vis spectrophotometry. See, FIG. 13.

[5] = Storage stability of aqueous dye solution at room temperature, UV-Vis spectra; details: for compound converted to indigo: room temperature, 5 day period
Experimental: All UV-Vis spectra were obtained using a Varian Cary 6000i UV-Vis spectrophotometer.
The stability of Compound 8 was measured by diluting samples of the compound in water to provide 0.01 and 3% wt. % solutions. The solutions were then stored at room temperature for 5 days. The UV-Vis spectra of the solution after 1, 2, and 5 days were obtained. FIGS. 3 and 11A are the UV-Vis spectra which show the robustness of the dye compound after at least 2 days of storage at room temperature at both concentrations.
The longer term stability of Compound 8 was measured by diluting a sample of the compound in water to provide a 0.01 wt. % solution containing 0.1M NaCl (aq). The solution was then stored at room temperature for 5 days. The UV-Vis spectra of the solution were obtained daily over the 5 days.
The stability of Compound 8 was measured by preparing a 0.01 wt. % aqueous solution of compound 8 in water. The solution was then stored at room temperature for 2 days. The UV-Vis spectra of the solution after 1 and 2 days were obtained. FIG. 11B are the UV-Vis spectra which show the robustness of the dye compound after at least 2 days of storage at room temperature at both concentrations.

[6] = Air stability of aqueous solution, UV-Vis spectra
Experimental: The air stability of Compound 8 was measured by diluting of the compound in water to provide a 0.01 wt. % solution. […] The solid line represents the stability of the Compound 8 aqueous solution under atmospheric conditions. The dashed line represents the stability of the Compound 8 aqueous solution after treatment with 15 minutes of nitrogen purging of the solution, followed by storage for 1 day in a vial equipped with a rubber septum. See, FIG. 10. The UV-Vis spectra of the solutions were obtained.

[7] = Atmospheric steam treatment of dyed cotton skein, conversion to indigo; details: steam under atmospheric conditions for 30 minutes
Experimental: Cotton skeins were pretreated with 1 M NaOH (aq), dyed with a 3 wt. % aqueous solution of Compound 8, hydrolyzed using 1 M NaOH (aq), and then rinsed with water. One skein was dried at 50° C. and remains purple in color. See, the top skein in FIG. 21. The other skein was dried at 50° C. and then exposed to steam under atmospheric conditions for 30 minutes, resulting in the attainment of a blue hue. See, the botton skein in FIG. 21.

[8] = Insoluble solids filtered from stored dye solution with sodium sulfate (Test 4); details: 2 wt. % aqueous solution, 0.45 micron filter
Experimental: Aqueous solutions of 2 wt. % of Compound 8 were prepared with varying concentrations of sodium sulfate and then filtered through a 0.45 micron PVDF syringe filter after one day of room temperature storage. The filters were then dried at 120° C., cooled to room temperature, and weighed to quantify the amount of insoluble solids that had precipitated out of solution during storage.
In a control experiment, the weight change (−0.35%) was determined for a syringe filter that was flushed with 10 mL distilled water and then dried at 120° C.

[9] = Dilution of stock solution into distilled water, comparison with leuco-indigo; details: for time to turn blue / convert back to indigo after dilution: 1 mL stock solution in 20 mL distilled water, no excess reducing agent
Experimental: The stability and visual observations comparing what occurs when an aqueous stock solution of leuco-indigo and an aqueous solution Compound 8 were obtained. The leuco-indigo stock solution was prepared using 0.2 wt. % indigo powder, 0.5 wt. % NaOH, and 0.5 wt. % sodium hydrosulfite, the solution was heated to 50-60° C. for 30 minutes, and the solution was then allowed to cool to room temperature. An aqueous solution containing 3 wt. % of Compound 8 was prepared. 1 mL of each solution was then added to 20 mL of distilled water and physical observations were made. See, Table 3.

[10] = Stability of Compound 4 in water, UV-Vis spectra; details: 3 wt. % aqueous solution, room temperature, up to 2 days
Experimental: The stability of compound 4 was determined. An aqueous solution of 3 wt. % of Compound 4 was prepared at stored at room temperature for 2 days. The UV-Vis spectra for each solution were obtained prior to storage, 3 hours, 1 day, and 2 days. The solution was then diluted by a factor of 300 and the UV-Vis spectrum of FIG. 15 obtained.

[11] = 1 mL stock solution added to 20 mL distilled water

hydrolysis to indigo [1]: hydrolyzes to indigo
Highest Solubility Measured (wt. %) [2]: 1.6 wt. %
average percent solids removed [2]: about 26%
SMILES: O=C1/C(=C2/C(=O)c3ccccc3N2C(=O)c2ccncc2)N(C(=O)c2ccncc2)c2ccccc21 [Compound 37]

conversion to indigo by heat ([3]; 100° C.): no conversion
conversion to indigo by heat ([3]; 150° C.): slower conversion
conversion to indigo by heat ([3]; 180° C.): relatively rapid conversion
robustness of the dye compound on storage at room temperature ([5]; 0.01 and 3 wt. % solutions in water, FIGS. 3 and 11A): at least 2 days
compound converted to indigo ([5]; 0.01 wt. % solution containing 0.1M NaCl (aq)): 9%
compound converted to indigo ([5]; 0.01 wt. % solution in water): 41%
robustness of the dye compound on storage at room temperature ([5]; Example 27, 0.01 wt. % aqueous solution, FIG. 11B): at least 2 days
UV-Vis spectra after one day, stored under nitrogen versus atmospheric conditions ([6]; 0.01 wt. % solution in water, 1 day at 8° C.): identical
air stability in solution ([6]; aqueous solution, storage at room temperature for 2 days): air stable
Highest Solubility Measured (wt. %) [2]: 40 wt. %
average percent solids removed [2]: about 2%
conversion to indigo by steam [7]: conversion to indigo
Fraction of dye compound removed during filtration (%) ([8]; 0.1M Na2SO4, one day at room temperature): 2.85%
Fraction of dye compound removed during filtration (%) ([8]; 0.5M Na2SO4, one day at room temperature): −0.4%
Fraction of dye compound removed during filtration (%) ([8]; 1M Na2SO4, one day at room temperature): 0.1%
Observation on dilution (color) [9, 11]: Dark purple solutions became lighter
UV-Vis spectra of diluted solutions [9, 11]: superimposable - consistent with no
SMILES: C[n+]1ccc(C(=O)N2/C(=C3\C(=O)c4ccccc4N3C(=O)c3cc[n+](C)cc3)C(=O)c3ccccc32)cc1 [Compound 8]
hydrolysis rate with salt relative to without salt (factor slower) [4]: six

stability in water compared to Compound 8 [10]: relative instability
SMILES: C[n+]1cccc(C(=O)N2/C(=C3\C(=O)c4ccccc4N3C(=O)c3ccc[n+](C)c3)C(=O)c3ccccc32)c1 [Compound 4]

Highest Solubility Measured (wt. %) [2]: 1.7 wt. %
average percent solids removed [2]: about 26%
SMILES: O=C1/C(=C2/C(=O)c3ccccc3N2C(=O)c2ccncc2)N(C(=O)c2ccncc2)c2ccccc21 [Compound 35]

Observation on dilution (color) [9, 11]: blue-green solution immediately
time to turn blue / convert back to indigo after dilution [9]: solution turned blue under 10 seconds
time to turn blue / convert back to indigo after dilution ([9]; listed as leuco-indigo): less than 10 seconds
SMILES: Oc1c(-c2[nH]c3ccccc3c2O)[nH]c2ccccc12 [Leuco-indigo, leuco-indigo]
